Data reported in patent publication US6673340B1, “Basement membrane degrading proteases as insect toxins and methods of use for same” (Iowa State University Research Foundation, Inc., priority 1999, dated 2004).

System: zinc metalloproteases
Test: Azocoll assay with selective protease inhibitor
Type: biochemical
Conditions: 1 mM inhibitor, azocoll assay pH 7.6
Protocol: Azocoll assays were carried out as described by Fisher and Werb (1995). For assays on medium from cells infected with the viruses expressing the mammalian proteases, all medium samples were concentrated 10-fold except for medium from AcMLF9.STR1-infected cells. Samples for analysis of S. peregrina cathepsin L expression were not concentrated. Aliquots of infected cell medium (2.5 μl for AcMLF9. ScathL-infected cells, 40 μl for all other samples) were mixed with 200 μl of 2 mg/ml azocoll suspended either in 50 mM Tris, pH 7.6-10 mM CaCl2-200 mM NaCl-50 μM ZnSO4 (for detection of stromelysin-1 and gelatinase A activity) or in 0.1 M sodium acetate, pH 5.0 (for detection of cathepsin L activity) in a final volume of 240 μl. A control reaction with sufficient dispase (Boehringer Mannheim, Indianapolis, Ind.) to digest all azocoll in the reaction tube was used as a standard. […] Absorbance of the supernatant was measured at 520 nm for each reaction, and mg azocoll digested/ml medium was calculated based on the absorbance of the dispase control reaction (Fisher, S. J., and Werb, Z. 1995. The catabolism of extracellular matrix components. In “Extracellular Matrix: A Practical Approach” (M. A. Haralson, and J. R. Hassell, Eds.), pp. 261-287. Oxford University Press, New York).

c1cnc2c(c1)ccc1cccnc12 [1,10-phenanthroline]
Inhibition of proteolytic activity in supernatants of stromelysin- and gelatinase-expressing virus infections: inhibited
